Source: the CheMixHub drug solubility set

Experiment: xn = mol fraction of the nth substance listed, in the solute-free solvent

O=C1C=CC(=O)N1c1ccccc1Br + CC(C)O + O
solubility (g/100 g solution)
Conditions | 278.15 K | 283.15 K | 288.15 K | 293.15 K | 298.15 K | 303.15 K | 308.15 K | 313.15 K | 318.15 K | 323.15 K
x2 = 0.03225 | 0.488 | 0.623 | 0.779 | 0.978 | 1.23 | 1.51 | 1.84 | 2.23 | 2.7 | 3.25
x2 = 0.06974 | 0.861 | 1.08 | 1.35 | 1.69 | 2.09 | 2.55 | 3.1 | 3.77 | 4.48 | 5.34
x2 = 0.1139 | 1.4 | 1.76 | 2.18 | 2.7 | 3.31 | 3.97 | 4.86 | 5.84 | 6.97 | 8.22
x2 = 0.1666 | 2.08 | 2.57 | 3.18 | 3.87 | 4.71 | 5.69 | 6.76 | 8.01 | 9.42 | 11
x2 = 0.2307 | 2.9 | 3.57 | 4.27 | 5.21 | 6.18 | 7.35 | 8.51 | 10.1 | 11.6 | 13.5
x2 = 0.3103 | 3.46 | 4.18 | 5.06 | 6.06 | 7.2 | 8.48 | 9.92 | 11.5 | 13.2 | 15.1
x2 = 0.4117 | 3.79 | 4.6 | 5.54 | 6.58 | 7.75 | 9.12 | 10.5 | 12.3 | 14.1 | 16.1
x2 = 0.5454 | 3.85 | 4.69 | 5.65 | 6.75 | 7.99 | 9.39 | 10.8 | 12.7 | 14.6 | 16.7
x2 = 0.7297 | 3.73 | 4.58 | 5.43 | 6.58 | 7.83 | 9.28 | 10.8 | 12.5 | 14.4 | 16.6

Nc1cccc2c1CN(C1CCC(=O)NC1=O)C2=O (stereo unspecified) + CCOC(C)=O + CC(C)O
solubility (g/100 g solution)
Conditions | 273.15 K | 278.15 K | 283.15 K | 288.15 K | 293.15 K | 298.15 K | 303.15 K | 308.15 K | 313.15 K | 318.15 K
x2 = 0.1457 | 0.111 | 0.13 | 0.152 | 0.176 | 0.202 | 0.232 | 0.267 | 0.306 | 0.354 | 0.41
x2 = 0.3126 | 0.141 | 0.157 | 0.176 | 0.198 | 0.226 | 0.259 | 0.294 | 0.337 | 0.385 | 0.438
x2 = 0.5057 | 0.179 | 0.201 | 0.223 | 0.247 | 0.274 | 0.301 | 0.334 | 0.37 | 0.41 | 0.454
x2 = 0.7318 | 0.135 | 0.154 | 0.176 | 0.198 | 0.222 | 0.248 | 0.278 | 0.31 | 0.343 | 0.382

Nc1cccc2c1CN(C1CCC(=O)NC1=O)C2=O (stereo unspecified) + CC#N + CC(C)O
solubility (g/100 g solution)
Conditions | 273.15 K | 278.15 K | 283.15 K | 288.15 K | 293.15 K | 298.15 K | 303.15 K | 308.15 K | 313.15 K | 318.15 K
x2 = 0.2679 | 0.218 | 0.231 | 0.251 | 0.274 | 0.304 | 0.339 | 0.373 | 0.411 | 0.451 | 0.494
x2 = 0.4939 | 0.278 | 0.304 | 0.339 | 0.374 | 0.415 | 0.459 | 0.511 | 0.569 | 0.627 | 0.694
x2 = 0.6871 | 0.349 | 0.383 | 0.42 | 0.463 | 0.503 | 0.55 | 0.602 | 0.666 | 0.732 | 0.802
x2 = 0.8541 | 0.363 | 0.393 | 0.428 | 0.464 | 0.506 | 0.552 | 0.609 | 0.666 | 0.744 | 0.82

Cl.NC1CCSC1=O (stereo unspecified) + CO + CC#N
solubility (g/100 g solution)
Conditions | x2 = 0.1 | x2 = 0.2 | x2 = 0.3 | x2 = 0.4 | x2 = 0.5 | x2 = 0.6 | x2 = 0.7 | x2 = 0.8 | x2 = 0.9
283.15 K | 0.153 | 0.482 | 1.04 | 1.98 | 3.18 | 4.35 | 4.99 | 5.63 | 6.22
293.15 K | 0.155 | 0.525 | 1.13 | 2.12 | 3.55 | 4.89 | 6.04 | 6.92 | 7.84
303.15 K | 0.17 | 0.539 | 1.22 | 2.35 | 3.91 | 5.55 | 6.97 | 8.29 | 9.23
313.15 K | 0.177 | 0.556 | 1.32 | 2.56 | 4.25 | 6.26 | 7.78 | 9.55 | 10.7
323.15 K | 0.194 | 0.6 | 1.46 | 2.83 | 4.71 | 7.06 | 8.51 | 10.9 | 12.3

Nc1ncc(Br)nc1Br + CCO + O
solubility (g/100 g solution)
Conditions | 278.15 K | 283.15 K | 288.15 K | 293.15 K | 298.15 K | 303.15 K | 308.15 K | 313.15 K | 318.15 K | 323.15 K
x2 = 0.04165 | 0.0211 | 0.0254 | 0.0296 | 0.0345 | 0.0394 | 0.044 | 0.0494 | 0.0552 | 0.0608 | 0.0668
x2 = 0.08908 | 0.0644 | 0.0768 | 0.0889 | 0.102 | 0.116 | 0.128 | 0.142 | 0.158 | 0.172 | 0.188
x2 = 0.1436 | 0.124 | 0.148 | 0.171 | 0.197 | 0.222 | 0.245 | 0.271 | 0.299 | 0.326 | 0.354
x2 = 0.2068 | 0.179 | 0.214 | 0.249 | 0.286 | 0.324 | 0.358 | 0.395 | 0.438 | 0.479 | 0.521
x2 = 0.2812 | 0.211 | 0.256 | 0.304 | 0.349 | 0.397 | 0.444 | 0.493 | 0.546 | 0.604 | 0.661
x2 = 0.3698 | 0.245 | 0.296 | 0.35 | 0.412 | 0.474 | 0.527 | 0.589 | 0.656 | 0.726 | 0.798
x2 = 0.4772 | 0.274 | 0.338 | 0.41 | 0.481 | 0.546 | 0.618 | 0.693 | 0.776 | 0.863 | 0.957
x2 = 0.6101 | 0.321 | 0.396 | 0.476 | 0.557 | 0.644 | 0.729 | 0.82 | 0.919 | 1.03 | 1.15
x2 = 0.7788 | 0.4 | 0.489 | 0.59 | 0.683 | 0.792 | 0.891 | 1 | 1.13 | 1.26 | 1.4

Nc1ncn(C2OC(CO)C(O)C2O)c(=O)n1 (stereo unspecified) + O + CC(C)O
solubility (g/100 g solution)
Conditions | 278.15 K | 283.15 K | 288.15 K | 293.15 K | 298.15 K | 303.15 K | 308.15 K | 313.15 K | 318.15 K
x2 = 0.4546 | 0.0657 | 0.0837 | 0.104 | 0.126 | 0.152 | 0.187 | 0.227 | 0.276 | 0.336
x2 = 0.6897 | 0.152 | 0.192 | 0.238 | 0.293 | 0.351 | 0.421 | 0.502 | 0.601 | 0.714
x2 = 0.8334 | 0.275 | 0.349 | 0.429 | 0.516 | 0.613 | 0.717 | 0.851 | 0.997 | 1.17
x2 = 0.9303 | 0.455 | 0.57 | 0.693 | 0.836 | 0.979 | 1.14 | 1.31 | 1.52 | 1.75
